The source of these data is ChEMBL document CHEMBL5620423, “Highly-tumor-targeted PAD4 inhibitors with PBA modification inhibit tumors in vivo by specifically inhibiting the PAD4-H3cit-NETs pathway in neutrophils” (Eur J Med Chem, 2023).

Series [1] relates to Sarcoma-180. Nature of the series: Antitumor activity against Sarcoma-180 mouse model assessed as inhibition of tumor growth at 10 umol/kg. The series is classed as functional.
For series [2], the system named is Sarcoma-180. Briefly: Antitumor activity against Sarcoma-180 mouse model assessed as tumor weight at 10 umol/kg (reference value: 1.65 +/-0.2 gms). The series is classed as functional. Conditions: dose 10 µmol/kg.
Series [3] relates to 4T1. Nature of the series: Cytotoxicity against mouse 4T1 cells assessed as reduction in cell viability measured after 48 hrs by MTT assay. Conditions: 4T1, 48 h. (Tetrazolium dyes change colour on reduction, which living cells bring about.)
In series [4] the test system is Sarcoma-180. Nature of the series: Antitumor activity against Sarcoma-180 mouse model assessed as tumor weight at 2 umol/kg (reference value: 1.65 +/-0.2 gms). Type of series: functional. The note with it: dose 2 µmol/kg.
Series [5] relates to Sarcoma-180. Briefly: Antitumor activity against Sarcoma-180 mouse model assessed as inhibition of tumor growth at 2 umol/kg. Type of series: functional.
The subject of series [6] is 4T1. Nature of the series: Antitumor activity against mouse 4T1 cells xenografted in BALB/c mouse assessed as reduction in tumor weight at 10 umol/kg, iv for 21 days. Conditions: dose 10.0 µmol/kg, time 21.0 day. The series is classed as functional, organism-based.
The nature of series [7]: Toxicity in BALB/c mouse xenografted with mouse 4T1 cells assessed as decrease in body weight at 10 umol/kg, iv measured after 9 to 15 days. The note with it: in vivo, time 9-15 day, dose 10 µmol/kg. The series is classed as organism-based.
The target of series [8] is Protein-arginine deiminase type-4 (Homo sapiens, UniProt Q9UM07). Nature of the series: Inhibition of PAD4 (unknown origin) using BAEE as substrate by colorimetric analysis.
Protein-arginine deiminase type-4, sequence (Q9UM07 whole entry): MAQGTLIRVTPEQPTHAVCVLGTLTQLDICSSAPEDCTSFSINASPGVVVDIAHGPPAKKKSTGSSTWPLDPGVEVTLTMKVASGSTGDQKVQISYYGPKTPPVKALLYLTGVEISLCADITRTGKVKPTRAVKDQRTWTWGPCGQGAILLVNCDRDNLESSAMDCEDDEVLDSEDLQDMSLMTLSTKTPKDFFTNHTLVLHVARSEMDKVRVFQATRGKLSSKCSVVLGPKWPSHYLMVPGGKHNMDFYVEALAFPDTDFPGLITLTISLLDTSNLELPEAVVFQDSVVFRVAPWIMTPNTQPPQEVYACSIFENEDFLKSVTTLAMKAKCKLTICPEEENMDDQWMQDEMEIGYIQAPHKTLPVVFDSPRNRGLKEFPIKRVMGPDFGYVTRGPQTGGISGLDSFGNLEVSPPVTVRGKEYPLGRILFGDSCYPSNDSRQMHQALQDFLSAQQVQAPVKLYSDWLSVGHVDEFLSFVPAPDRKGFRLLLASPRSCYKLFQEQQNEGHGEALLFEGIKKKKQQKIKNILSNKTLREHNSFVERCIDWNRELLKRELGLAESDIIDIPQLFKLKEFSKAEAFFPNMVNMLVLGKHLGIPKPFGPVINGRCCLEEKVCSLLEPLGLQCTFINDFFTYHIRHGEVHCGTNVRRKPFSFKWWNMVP
A short description of series [9]: Nephrotoxicity in BALB/c mouse xenografted with mouse 4T1 cells assessed as reduction in serum BUN level at 10 umol/kg, iv for 21 days. The note with it: in vivo, 504 h, dose 10 µmol/kg, time 21 day. The series is classed as toxicity, organism-based.
In series [10] the test system is 4T1. Briefly: Antitumor activity against mouse 4T1 cells xenografted in BALB/c mouse assessed as reduction in tumor volume at 10 umol/kg, iv for 21 days. The series is classed as functional, organism-based. The note with it: dose 10.0 µmol/kg, time 21.0 day.
A short description of series [11]: Hepatotoxicity in BALB/c mouse xenografted with mouse 4T1 cells assessed as reduction in serum ALT level at 10 umol/kg, iv for 21 days. The series is classed as toxicity, organism-based. The note with it: in vivo, 504 h, dose 10 µmol/kg, time 21 day.
The nature of series [12]: Nephrotoxicity in BALB/c mouse xenografted with mouse 4T1 cells assessed as […] in serum creatinine level at 10 umol/kg, iv for 21 days. Type of series: toxicity, organism-based. Conditions: in vivo, 504 h, dose 10 µmol/kg, time 21 day.
Series [13] deals with Protein-arginine deiminase type-4 (Mus musculus) (UniProt Q9Z183). Briefly: Inhibition of PAD4 in mouse bone marrow neutrophils assessed as reduction in H3 cit expression by measuring red filamentous histone structure at 50 uM measured after 48 hrs by Hoechst33342 staining based confocal laser scanning microscopy. The series is classed as cell-based. The note with it: Neutrophil.
Protein-arginine deiminase type-4 (Mus musculus), sequence (Q9Z183 whole entry): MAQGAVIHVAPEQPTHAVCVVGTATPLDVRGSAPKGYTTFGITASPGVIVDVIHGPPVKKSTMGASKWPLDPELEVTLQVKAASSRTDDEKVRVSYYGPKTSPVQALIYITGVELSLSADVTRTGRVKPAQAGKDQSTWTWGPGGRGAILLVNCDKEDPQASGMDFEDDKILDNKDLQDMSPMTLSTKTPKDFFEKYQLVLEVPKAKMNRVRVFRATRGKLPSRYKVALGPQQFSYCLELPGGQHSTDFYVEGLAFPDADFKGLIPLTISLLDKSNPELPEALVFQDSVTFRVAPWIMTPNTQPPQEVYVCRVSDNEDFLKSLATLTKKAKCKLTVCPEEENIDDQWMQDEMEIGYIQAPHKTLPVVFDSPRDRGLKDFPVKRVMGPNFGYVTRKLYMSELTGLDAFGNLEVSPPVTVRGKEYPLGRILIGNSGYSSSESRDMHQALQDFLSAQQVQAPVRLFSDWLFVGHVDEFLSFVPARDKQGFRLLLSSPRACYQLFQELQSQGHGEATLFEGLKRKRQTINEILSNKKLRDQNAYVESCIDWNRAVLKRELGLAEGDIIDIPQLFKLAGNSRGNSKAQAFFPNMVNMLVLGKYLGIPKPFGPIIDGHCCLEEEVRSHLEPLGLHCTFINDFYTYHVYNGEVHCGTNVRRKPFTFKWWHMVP

Series [14] concerns 4T1. Briefly: Anti-metastatic activity against mouse 4T1 cells xenografted in BALB/c mouse assessed as reduction in number of lung metastatic tumor nodules at 10 umol/kg, iv for 21 days. Type of series: functional, organism-based. Conditions: dose 10.0 µmol/kg, time 21.0 day.

Structures are written as SMILES. Calls of active or inactive are those of the source. The rule behind the calls is not given here.

On to `N=C(CCl)NCCC[C@H](NC(=O)c1cc(F)cc(B(O)O)c1)C(=O)NCc1ccccc1`, for which the inhibition in vivo at 10 µmol/kg with Sarcoma-180 [1] came to 38.7%. Also, in the series on Sarcoma-180 [2], the Activity amounted to 1.01 g. Besides, the IC50 with 4T1 [3] was greater than 100 µM.

In the case of `N=C(CCl)NCCC[C@H](NC(=O)c1ccc(B(O)O)cc1)C(=O)NCc1ccccc1`, in the series on Sarcoma-180 [1], the inhibition in vivo at 10 µmol/kg was determined as 40.3%. In addition, in the series on Sarcoma-180 [2], the Activity is recorded as 0.98 g. Besides, in the series with 4T1 [3], the IC50 was greater than 100 µM.

Take `N=C(CCl)NCCC[C@H](NC(=O)c1cc(B(O)O)cc([N+](=O)[O-])c1)C(=O)NCc1ccccc1`: the inhibition in vivo at 10 µmol/kg in the series on Sarcoma-180 [1] amounted to 27.6%. Besides, the Activity with Sarcoma-180 [2] amounted to 1.19 g. Moreover, in the series on 4T1 [3], the IC50 is greater than 100 µM.

As for `COc1cccc2c1C(=O)c1c(O)c3c(c(O)c1C2=O)C[C@@](O)(C(=O)CO)C[C@@H]3O[C@H]1C[C@H](N)[C@H](O)[C@H](C)O1` [DOXORUBICIN], in the series on Sarcoma-180 [4], the Activity is 0.94 g. In addition, the inhibition in vivo at 2 µmol/kg in the series with Sarcoma-180 [5] was determined as 42.7%. In addition, the 50% inhibitory concentration (IC50) in the series on 4T1 [3] stood at 1.63 µM.

As for `N=C(CCl)NCCC[C@H](NC(=O)c1cc([N+](=O)[O-])c2nonc2c1)C(=O)NCc1ccc(B(O)O)cc1`, in the series with Sarcoma-180 [1], the inhibition in vivo at 10 µmol/kg was 47.4%. Besides, the Activity in the series with Sarcoma-180 [2] is given as 0.87 g. In addition, the IC50 with 4T1 [3] is greater than 100 µM.

Turning to `N=C(CCl)NCCC[C@H](NC(=O)c1ccccc1B(O)O)C(=O)NCc1ccccc1`, the inhibition in vivo at 10 µmol/kg in the series with Sarcoma-180 [1] was 39.2%. Further, in the series on Sarcoma-180 [2], the Activity is 1 g. Further, the IC50 in the series on 4T1 [3] is greater than 100 µM.

`N=C(CCl)NCCC[C@H](NC(=O)c1cccc(B(O)O)c1)C(=O)NCc1ccccc1`: the inhibition in vivo at 10 µmol/kg in the series with Sarcoma-180 [1] turned out to be 36.7%. In addition, the Activity with Sarcoma-180 [2] is 1.04 g. Further, in the series with 4T1 [3], the IC50 is greater than 100 µM.

As for `N=C(CCl)NCCC[C@H](NC(=O)c1ccc(F)c(B(O)O)c1)C(=O)NCc1ccccc1`, the inhibition in vivo at 10 µmol/kg in the series on Sarcoma-180 [1] was determined as 37.5%. Also, the Activity in the series with Sarcoma-180 [2] amounted to 1.03 g. Also, the IC50 with 4T1 [3] was greater than 100 µM.

With `N=C(CCl)NCCC[C@H](NC(=O)c1cccc(B(O)O)c1F)C(=O)NCc1ccccc1`, in the series with Sarcoma-180 [1], the inhibition in vivo at 10 µmol/kg came out at 43.7%. Besides, in the series with Sarcoma-180 [2], the Activity is 0.93 g. Also, in the series on 4T1 [3], the IC50 is greater than 100 µM.

For `CN(C)c1ccc2cc(C(=O)N[C@@H](CCCNC(=N)CCl)C(=O)NCc3ccccc3)ccc2c1`, in the series with Sarcoma-180 [1], the inhibition in vivo at 10 µmol/kg came out at 42.7%. Further, the result in the series on 4T1 [6], in the series on 4T1 [10] and in the series on 4T1 [14] was Active. The Activity entry is listed as “Toxic” in series [7]; “Toxic” in [9]; 0.94 g in the series on Sarcoma-180 [2]; “Toxic” in series [11]; “Toxic” in [12]. Further, the concentration for half-maximal inhibition (IC50) came out at 2.86 µM in series [8] and 11.9 µM in the series on 4T1 [3]. Also, the inhibition entry in [13] is “Active”.

As for `N=C(CCl)NCCC[C@H](NC(=O)c1cc([N+](=O)[O-])c2nonc2c1)C(=O)NCc1ccccc1B(O)O`, in the series with Sarcoma-180 [1], the inhibition in vivo at 10 µmol/kg was 45.7%. Moreover, the Activity with Sarcoma-180 [2] is listed as 0.89 g. In the series with 4T1 [3], the IC50 was greater than 100 µM.

Turning to `N=C(CCl)NCCC[C@H](NC(=O)c1cc(B(O)O)ccc1F)C(=O)NCc1ccccc1`, the inhibition in vivo at 10 µmol/kg with Sarcoma-180 [1] was 30.8%. The Activity with Sarcoma-180 [2] was 1.14 g. The IC50 in the series on 4T1 [3] was greater than 100 µM.

A word on the inhibition in vivo: it is the percentage by which the read-out fell short of the control. A word on the IC50: it is the concentration that gives 50% inhibition.
